The text below walks through data of PMC4245237, “Searching the Cytochrome P450 Enzymes for the Metabolism of Meranzin Hydrate: A Prospective Antidepressant Originating from Chaihu-Shugan-San” (PLoS ONE, 2014).

Structures are written as SMILES. “And” between values parts separate entries of the source, which are not always exact repeats. Identical values can stand only once. “Also recorded” adds a separate entry of the source. Counter-ions that a name gives are not always drawn. Like-named read-outs stand apart in the source and are kept apart here. Where only a bound is given, the exact number is not on record here.

One series has as its target CYP2E1 (Homo sapiens, UniProt P05181). As to conditions: cited from earlier work.
On the set-up of series [1]: method as in PMID 21061180. The settings on record: rats; cited from earlier work.
Series [2] deals with T1, CYP2C19 (Homo sapiens, UniProt P33261). Put plainly: Inhibition of CYP2C19 (S-Mephenytoin 4-hydroxylation) in HLMs. The format is in vitro ADME. Further details: tissue Cypex Ltd. (U.K.); host or cells: pooled human liver microsomes, ten donors. Here is the method:
(§1) The samples were vortexed for 5 min.
(§2) All incubation conditions were the same as mentioned above.
(§3) Therefore, Dixon plots for the inhibition of CYP1A2 and CYP2C19 were determined by incubating the substrate probe at multiple concentrations with or without the test inhibitor at multiple concentrations with the HLMs and cofactors. The inhibition data obtained from the pilot experiments were used as a guide to generate appropriate probe substrate and test inhibitor concentrations for the determination of the Ki values for each CYP isoform. The isoform-specific probe substrate concentrations used were 3 to 100 µM phenacetin for CYP1A2 and 15 to 120 µM S-mephenytoin for CYP2C19. The MH concentrations used were 0 to 100 µM.
(§4) P<0.05 denoted significance in all cases.

The target in series [3] is T1, CYP2C19. Kind of series: Effect of specific inhibitor ticlopidine on MH metabolism in HLMs. Further details: tissue Cypex Ltd. (U.K.); host or cells: pooled human liver microsomes, ten donors. The settings on record: MH 10 µM, in the presence of TIC 1 µM. The class given is in vitro ADME. As to the method: as §1, §4
For series [4], the target named is T2, CYP3A4 (Homo sapiens, UniProt P08684).
T2 construct: tissue Cypex Ltd. (U.K.); host or cells: pooled human liver microsomes, ten donors
Put plainly: Effect of specific inhibitor ketoconazole on MH metabolism in HLMs. The settings on record: MH 10 µM, in the presence of KET 1 µM. The class given is in vitro ADME. Here is the method:
as §1, §4

Series [5] addresses T1, CYP2C19. Kind of series: Kinetic analysis of MH metabolism by recombinant CYP2C19. The format is in vitro ADME. The arrangement: purchased Cypex Ltd. (U.K.). As to conditions: recombinant CYP2C19 10 pmol. Here is the method:
as §1
(§5) Kinetic analysis was performed for MH, and the data generated were used as a guide for selecting the appropriate concentrations of MH in the subsequent inhibition experiments. Thus, the kinetic parameters for the metabolism of MH was determined by incubating increasing concentrations of MH (0.5–100 µM) (without the inhibitor) at 37°C with the HLMs and NADPH under the incubation conditions. The equation of MH reaction velocity (V) in the HLMs or CYP isoforms was expressed as V = (C0–Ct)/T/Cp, where C0 and Ct represented the initial and final concentrations of MH in the incubation solution, respectively. T was the incubation time (min) and Cp was the protein concentration (mg/mL or nmol). All values were expressed as the mean±standard deviation (SD). The mean intrinsic clearance rate (CLint) for the in vitro incubation was estimated using Vmax/Km.
as §4

Series [6] addresses T3, CYP2D6 (Homo sapiens, UniProt P10635).
T3 construct: tissue Cypex Ltd. (U.K.); host or cells: pooled human liver microsomes, ten donors
Put plainly: Inhibition of CYP2D6 (metoprolol α-hydroxylation) in HLMs. The class given is in vitro ADME. As to the method: as §1, §2, §4

For series [7], the target named is T1, CYP2C19. Kind of series: MCR of MH with recombinant CYP2C19 inhibited by ticlopidine. The class given is in vitro ADME. The arrangement: purchased Cypex Ltd. (U.K.). As to conditions: ticlopidine 1 µM. Here is the method:
as §1
(§6) Figure 3 Effect on the metabolic clearance rate (MCR) of meranzin hydrate (MH) under the inhibition of recombinant CYP1A2 and CYP2C19. […] Each point represents the average of triplicate incubations.

The subject of series [8] is human liver microsomes (HLMs). Kind of series: Kinetic analysis of MH metabolism in HLMs. The class given is in vitro ADME. As to conditions: HLMs 0.5 mg/mL, MH 0.5–100 µM, 30 min, 37°C.
In series [9] the target is T4, CYP1A2 (Homo sapiens, UniProt P05177).
T4 sequence (P05177 1-516): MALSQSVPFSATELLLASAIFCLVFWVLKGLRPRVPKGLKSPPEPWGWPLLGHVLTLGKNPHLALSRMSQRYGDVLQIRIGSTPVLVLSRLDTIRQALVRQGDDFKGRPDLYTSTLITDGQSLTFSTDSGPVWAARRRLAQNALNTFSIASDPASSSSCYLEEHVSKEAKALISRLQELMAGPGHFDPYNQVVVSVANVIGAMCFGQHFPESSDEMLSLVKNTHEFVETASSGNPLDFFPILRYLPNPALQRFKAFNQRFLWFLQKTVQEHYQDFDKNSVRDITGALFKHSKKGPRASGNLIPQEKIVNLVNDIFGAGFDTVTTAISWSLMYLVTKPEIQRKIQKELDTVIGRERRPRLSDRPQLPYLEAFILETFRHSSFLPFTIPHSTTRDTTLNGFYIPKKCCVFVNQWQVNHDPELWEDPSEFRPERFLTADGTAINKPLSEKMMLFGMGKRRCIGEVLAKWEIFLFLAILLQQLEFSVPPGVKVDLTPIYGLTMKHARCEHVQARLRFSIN
Kind of series: Kinetic analysis of MH metabolism by recombinant CYP1A2. The class given is in vitro ADME. The arrangement: purchased Cypex Ltd. (U.K.). The settings on record: recombinant CYP1A2 10 pmol. Here is the method: as §1, §5, §4

For series [10], the target named is T3, CYP2D6. Kind of series: Effect of specific inhibitor quinidine on MH metabolism in HLMs. The format is in vitro ADME. The settings on record: MH 10 µM, in the presence of QUI 1 µM. As to the method: as §1, §4
Series [11] deals with T5, CYP2C9 (Homo sapiens, UniProt P11712).
T5 construct: tissue Cypex Ltd. (U.K.); host or cells: pooled human liver microsomes, ten donors
Kind of series: Inhibition of CYP2C9 (tolbutamide 4-hydroxylation) in HLMs. The format is in vitro ADME. As to the method:
as §1, §2, §4

In series [12] the target is T4, CYP1A2. Kind of series: Inhibition of CYP1A2 (phenacetin O-deethylation) in HLMs. The format is in vitro ADME. The arrangement: tissue Cypex Ltd. (U.K.); host or cells: pooled human liver microsomes, ten donors. As to the method:
as §1, §2, §3, §4

The target of series [13] is T4, CYP1A2. Put plainly: Effect of specific inhibitor furafylline on MH metabolism in HLMs. The format is in vitro ADME. The arrangement: tissue Cypex Ltd. (U.K.); host or cells: pooled human liver microsomes, ten donors. As to conditions: MH 10 µM, in the presence of FUR 1 µM. As to the method:
as §1, §4

The target of series [14] is T4, CYP1A2. Kind of series: MCR of MH with recombinant CYP1A2 inhibited by furafylline. The format is in vitro ADME. Further details: purchased Cypex Ltd. (U.K.). The settings on record: furafylline 1 µM. Here is the method: as §1, §6
The target in series [15] is T2, CYP3A4. Put plainly: Inhibition of CYP3A4 (midazolam 1-hydroxylation) in HLMs. The class given is in vitro ADME. As to the method: as §1, §2, §4
For series [16], the system named is longitudinal and circular jejunum muscles. The settings on record: dose-dependent manner; cited from earlier work.
The target of series [17] is T5, CYP2C9. Kind of series: Effect of specific inhibitor sulfaphenazole on MH metabolism in HLMs. The class given is in vitro ADME. The settings on record: MH 10 µM, in the presence of SUL 1 µM. Here is the method:
as §1, §4

T3 sequence (P10635 whole entry): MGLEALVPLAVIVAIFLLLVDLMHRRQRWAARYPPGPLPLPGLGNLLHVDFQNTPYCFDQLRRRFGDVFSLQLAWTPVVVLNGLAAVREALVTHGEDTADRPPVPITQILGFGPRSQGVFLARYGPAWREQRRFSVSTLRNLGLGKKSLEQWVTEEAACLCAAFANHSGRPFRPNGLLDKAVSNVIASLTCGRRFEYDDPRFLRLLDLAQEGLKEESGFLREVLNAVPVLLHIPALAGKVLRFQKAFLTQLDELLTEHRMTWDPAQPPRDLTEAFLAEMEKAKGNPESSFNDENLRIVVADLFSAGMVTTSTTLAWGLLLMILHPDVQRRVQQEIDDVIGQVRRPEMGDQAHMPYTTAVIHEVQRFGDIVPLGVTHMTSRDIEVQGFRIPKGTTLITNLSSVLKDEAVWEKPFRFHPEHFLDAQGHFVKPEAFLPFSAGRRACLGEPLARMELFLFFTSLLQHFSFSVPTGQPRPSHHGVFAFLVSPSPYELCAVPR
T5 sequence (P11712 whole entry): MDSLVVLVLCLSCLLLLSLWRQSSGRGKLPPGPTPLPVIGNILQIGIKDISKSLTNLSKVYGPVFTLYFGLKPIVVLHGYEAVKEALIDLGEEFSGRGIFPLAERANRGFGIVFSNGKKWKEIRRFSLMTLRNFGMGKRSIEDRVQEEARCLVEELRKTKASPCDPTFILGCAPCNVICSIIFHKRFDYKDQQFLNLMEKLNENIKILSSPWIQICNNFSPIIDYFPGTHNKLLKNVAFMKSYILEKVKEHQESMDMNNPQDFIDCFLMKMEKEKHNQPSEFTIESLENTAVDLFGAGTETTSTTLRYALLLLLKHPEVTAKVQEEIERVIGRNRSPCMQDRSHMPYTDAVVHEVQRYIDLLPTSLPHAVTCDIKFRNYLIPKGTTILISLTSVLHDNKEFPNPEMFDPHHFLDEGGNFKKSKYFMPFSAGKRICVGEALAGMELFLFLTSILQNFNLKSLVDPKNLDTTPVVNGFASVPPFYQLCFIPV
T1 sequence (P33261 whole entry): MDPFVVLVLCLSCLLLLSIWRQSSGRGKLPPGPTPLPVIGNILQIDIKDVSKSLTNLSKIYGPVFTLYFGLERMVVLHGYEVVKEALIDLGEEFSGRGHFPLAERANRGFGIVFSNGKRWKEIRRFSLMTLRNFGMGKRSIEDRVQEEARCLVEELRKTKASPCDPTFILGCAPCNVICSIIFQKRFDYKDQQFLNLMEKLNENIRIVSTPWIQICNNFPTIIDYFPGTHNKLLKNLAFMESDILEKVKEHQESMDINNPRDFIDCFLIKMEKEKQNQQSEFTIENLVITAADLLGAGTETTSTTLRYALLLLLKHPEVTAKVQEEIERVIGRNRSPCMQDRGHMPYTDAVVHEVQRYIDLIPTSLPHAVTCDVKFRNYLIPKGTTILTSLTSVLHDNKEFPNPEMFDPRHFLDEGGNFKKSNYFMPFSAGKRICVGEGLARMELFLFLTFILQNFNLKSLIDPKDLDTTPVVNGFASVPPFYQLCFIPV
T2 sequence (P08684 whole entry): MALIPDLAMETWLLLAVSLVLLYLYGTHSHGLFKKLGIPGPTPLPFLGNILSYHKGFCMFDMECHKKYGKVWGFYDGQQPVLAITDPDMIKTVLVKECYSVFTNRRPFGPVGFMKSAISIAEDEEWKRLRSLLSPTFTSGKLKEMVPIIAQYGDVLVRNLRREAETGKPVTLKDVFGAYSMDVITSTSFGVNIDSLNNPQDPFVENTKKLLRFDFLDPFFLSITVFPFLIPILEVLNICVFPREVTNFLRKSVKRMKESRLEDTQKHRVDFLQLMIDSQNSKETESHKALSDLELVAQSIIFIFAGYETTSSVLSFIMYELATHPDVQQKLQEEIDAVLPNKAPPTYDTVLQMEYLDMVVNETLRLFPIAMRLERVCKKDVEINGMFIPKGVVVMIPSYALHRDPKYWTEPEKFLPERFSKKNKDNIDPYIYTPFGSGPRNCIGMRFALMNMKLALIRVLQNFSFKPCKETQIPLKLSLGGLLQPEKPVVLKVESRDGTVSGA
Sequence of CYP2E1 (P05181 whole entry): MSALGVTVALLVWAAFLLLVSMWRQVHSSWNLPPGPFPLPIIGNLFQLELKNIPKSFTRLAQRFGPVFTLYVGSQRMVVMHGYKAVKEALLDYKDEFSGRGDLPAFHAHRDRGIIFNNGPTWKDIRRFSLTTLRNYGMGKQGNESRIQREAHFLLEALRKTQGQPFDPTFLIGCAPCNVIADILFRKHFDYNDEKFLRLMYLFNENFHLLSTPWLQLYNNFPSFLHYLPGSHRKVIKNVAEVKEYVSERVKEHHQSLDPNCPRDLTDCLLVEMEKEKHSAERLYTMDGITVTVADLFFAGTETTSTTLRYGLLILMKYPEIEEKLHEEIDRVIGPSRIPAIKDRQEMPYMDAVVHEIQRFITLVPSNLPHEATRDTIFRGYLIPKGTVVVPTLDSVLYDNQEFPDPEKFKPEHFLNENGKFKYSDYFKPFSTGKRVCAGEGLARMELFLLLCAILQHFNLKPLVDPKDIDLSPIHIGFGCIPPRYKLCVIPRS

Usually Ki stands for a measure of affinity in units of concentration, obtained from inhibition or displacement. On to `Cc1ncsc1CCCl` [CHL, chlormethiazole hydrochloride], for which, on CYP2E1 (read-out: Ki, specific inhibitor reported value, CYP2E1), the inhibitory constant (Ki) was 12 µM.
What is called IC50 is the concentration needed to halve the response being measured. In general, Km refers to the substrate concentration at which the rate is half of its maximum. In the case of `COc1ccc2ccc(=O)oc2c1C[C@H](O)C(C)(C)O` [MH, Meranzin hydrate], the gastric emptying result in [1] is on record as “significantly accelerated”. Besides, the intestinal transit result in [1] is given as “significantly accelerated”. Moreover, the type of inhibition result at CYP2C19 [2] (CYP2C19, HLMs, Dixon / Lineweaver-Burk plots) is “competitively; also recorded: full competitive inhibition”; on CYP1A2 [12] (CYP1A2, HLMs, Dixon / Lineweaver-Burk plots), “competitive”. Moreover, the 50% inhibitory concentration (IC50) on CYP2C19 [2] (CYP2C19, classification of Kong et al [23], read-out: inhibitor potency class by IC50) was 10 to 50 µM; at CYP2D6 [6] (CYP2D6, classification of Kong et al [23], read-out: inhibitor potency class by IC50), more than 50 µM; on CYP2D6 [6] (HLMs, metoprolol 7.5 µM, read-out: IC50), more than 100 µM; at CYP2C9 [11] (CYP2C9, classification of Kong et al [23], read-out: inhibitor potency class by IC50), more than 50 µM; on CYP2C9 [11] (HLMs, tolbutamide 100 µM, read-out: IC50), more than 100 µM; at CYP1A2 [12] (CYP1A2, classification of Kong et al [23], read-out: inhibitor potency class by IC50) it was less than 10 µM. Besides, the IC50 at CYP1A2 [12] (HLMs, phenacetin 10 µM, brackets = 95% confidence interval, read-out: IC50) is 4.47 µM; on CYP3A4 [15] (CYP3A4, classification of Kong et al [23], read-out: inhibitor potency class by IC50), more than 50 µM; at CYP3A4 [15] (HLMs, midazolam 5 µM, read-out: IC50), more than 100 µM. The Ki was determined as 42.6 µM on CYP2C19 [2] (HLMs, S-mephenytoin 15 to 120 µM, MH 0 to 100 µM) and 4.56 µM at CYP1A2 [12] (HLMs, phenacetin 3 to 100 µM, MH 0 to 100 µM). In addition, the “metabolic clearance rate (MCR) of MH, % of that of the control” value on CYP2C19 [3] is 41.3±11.1% and 41.3%; at CYP1A2 [13] it was 29.1±7.2% and 29.1%. Also, the “effect on metabolism (MCR) of MH” value at CYP3A4 [4], at CYP2D6 [10] and at CYP2C9 [17] was “no obvious inhibitory effects” throughout. Further, the Km on CYP2C19 [5] came out at 25.9 ± 6.6 µM; on CYP2C19 [5] (listed as Meranzin hydrate) it was 25.9 µM; in [8] it was 10.3 ± 1.3 µM; in [8] (listed as Meranzin hydrate), 10.3 µM; on CYP1A2 [9] it was 8 ± 1.6 µM. Further, the “Vmax of MH metabolism” value on CYP2C19 [5] turned out to be 134.3±12.4 nmol/nmol P450/min; on CYP2C19 [5] (listed as Meranzin hydrate) it was 134.3 nmol/nmol P450/min; in [8], 99.1±3.3 nmol/mg protein/min; in [8] (listed as Meranzin hydrate) it was 99.11 nmol/mg protein/min; on CYP1A2 [9], 112.4±5.7 nmol/nmol P450/min; at CYP1A2 [9] (listed as Meranzin hydrate), 112.4 nmol/nmol P450/min. Moreover, the “MCR of MH, % of that of the control” value stood at 68.5% on CYP2C19 [7] (recombinant CYP2C19, MH 10 µM); 80.5% at CYP2C19 [7] (recombinant CYP2C19, MH 50 µM); 43.5% at CYP1A2 [14] (recombinant CYP1A2, MH 10 µM); 60.5% at CYP1A2 [14] (recombinant CYP1A2, MH 50 µM). In addition, the “IC50 of MH relative to that of FUR” value against CYP1A2 [12] (CYP1A2, phenacetin O-deethylation, HLMs, higher than FUR) is listed as 3.2 fold. Besides, at CYP1A2 [12] (CYP1A2, phenacetin O-deethylation, higher than FUR), the “Ki of MH relative to that of FUR” value is on record as “approximately 1.5 fold”. In series [16], the “amplitude of contractility in the longitudinal and circular jejunum muscles” value is given as “increase the amplitude of contractility”.
Take `CCN(CC)C(=S)S` [DIE, diethyldithiocarbamate]: the 50% inhibitory concentration (IC50) on CYP2E1 was 21.3 µM.
